# Patent US12083143B2, “MLK-regulated microRNAs in angiogenesis and tumor development” (University of Massachusetts, priority 2018, dated 2024)
# Tests used:
# primary MLEC cells = assay: qPCR of pro-angiogenic genes in primary MLEC after miR146a mimic transfection, 90 minutes hypoxia; type: cell-based, mouse; conditions: mimic transfected 48 hours, 1% O2, versus control
# Experimental: Either control or miR146a mimic were transfected into primary MLEC cells for 48 hours. Cells were incubated for 90 minutes in hypoxia chamber in the presence of 1% O2. RNA was isolated and qPCR was performed for genes as noted.
# (§1) Total RNA was extracted from cells and tissues with the RNeasy Mini Kit (Qiagen) or TRIzol reagent (Invitrogen), and 1 μg of total RNA was reverse transcribed with oligo(dT) primers for cDNA synthesis. The expression of mRNA was examined by quantitative PCR analysis using a QuantStudio™ 6 Flex Real-Time PCR System (Applied Biosystems). Taqman© assays were used to quantitate Pgf, Adam8, Mmp9, Angptl4, Hprt (Mm00446968—m1) and Gapdh (4352339E-0904021) mRNA (Applied Biosystems). The 2^−ΔΔCT method is used for relative quantification of gene as described elsewhere^5,6. reference genes of Hprt and Gapdh have been used to normalize the PCRs in each sample.
# [1] = test system: mouse lung endothelial cell (MLEC); assay: qRT-PCR of angiogenesis related genes in WT MLEC after miR146a mimic, 4 hours post hypoxia; type: cell-based; conditions: mimic 48 hours, versus control
# Experimental: (A-D) mRNA was isolated from WT mouse lung endothelial cell (MLEC) treated either with control or miR146a mimic for 48 hours and qRT-PCR was performed for different angiogenesis related genes after 4 hours post hypoxia
# Quiescent monolayers of WT and Mlk2/3−/− primary endothelial cell MLECs were exposed to normoxia (21% O2) or hypoxia (1% O2) for 0-24 h in a hypoxia chamber. After exposure cells were immediately harvested and examined for expression of genes by qPCR or immunoblots.
# as §1
# LLC1 cells = assay: LLC1 lung tumor formation after tail vein injection (experimental metastasis); type: in vivo, mouse; conditions: 1×10^6 LLC1 cells with MLK inhibitor or solvent in 200 ul PBS into tail vein of WT mice; lung isolated after 20 days
# Experimental: 1×10^6 LLC1 cells, with either MLK inhibitor (URMC-099) or solvent in 200 ul of sterile PBS were injected into the tail vein of WT mice (12-16 week of age). After 20 days of injection Lung was isolated (A) and tumor number were counted (Control—White bar; MLK inhibitor—Black bar) (B).
# We also tested the role of MLK inhibitor in Lung tumor formation. […] After 20 days of injection Lung was isolated and tumor number were counted (Control—White bar; MLK inhibitor—Black bar).
Molecule,"expression of pro-angiogenic factors (VEGF, Angptl4, Angpt2, MMP9) by qPCR (primary MLEC cells)","expression of pro-angiogenic factors (VEGF, Angptl4, Angpt2, MMP9) by qPCR (primary MLEC cells; listed as miR146a)",angiogenesis related gene expression by qRT-PCR [1],LLC1 tumor formation in vivo (lung tumor number) (LLC1 cells)
ugagaacugaauuccauggguu (SEQ ID NO:3) [miR146a mimic],down-regulated,suppressed the pro-angiogenic factors,mimic the MLK deficient phenotype,
CN1CCN(Cc2ccc(-c3cnc4[nH]cc(-c5ccc6[nH]ccc6c5)c4c3)cc2)CC1 [URMC-099],,,,suppressed LLC1 tumor formation in vivo
